Data reported in patent US11807625B2, “Capsid inhibitors for the prevention of HIV” (Gilead Sciences, Inc., priority 2019, dated 2023).
Read-outs that look alike come from different tables or passages of the source.

Experiment: PK of compound of Formula (Ia) after single subcutaneous dose of solution formulations in Wistar Han rats
Format: in vivo
Conditions: male, Wistar Han, rat, plasma, sc, 50 mg/kg; for concentration at 2688 h / concentration at 3024 h / concentration at 3360 h / concentration at 3696 h / concentration at 4032 h / concentration at 4704 h: Wistar Han rats, SC 50 mg/kg, 500 mg/mL solution X (5.00% ethanol, 1.91% poloxamer 188); for AUC(0-t): male Wistar Han rats, single SC 50 mg/kg, mean ± SD
Method: Formulations containing the compound of Formula (Ia), or a pharmaceutically acceptable salt thereof, were prepared as solutions and optionally administered subcutaneously or intramuscularly to rats, rabbits, and/or dogs.
A solution of about 400 mg/mL of the compound of Formula (Ia) having 19.14 w/w % water, 40.66 w/w % PEG 300, 35.20 w/w % of a sodium salt of a compound of Formula (Ia), and 5.00% ethanol was prepared. The solution was administered subcutaneously to male Wistar Han rats at a dose level of about 50 mg/kg and dose volume of 0.125 mL/kg and the pharmacokinetic (PK) profile was determined.
A solution of about 500 mg/mL of the compound of Formula (Ia) having 16.64 w/w % water, 35.36 w/w % PEG 300, 43.00 w/w % of a sodium salt of a compound of Formula (Ia), and 5.00% ethanol was prepared. The solution was administered subcutaneously to male Wistar Han rats at a dose level of about 50 mg/kg and dose volume of 0.1 mL/kg and the pharmacokinetic (PK) profile was determined.
A solution of about 400 mg/mL of the compound of Formula (Ia) having 17.00 w/w % water, 36.40 w/w % PEG 300, 35.20 w/w % of a sodium salt of a compound of Formula (Ia), 5.00 w/w % ethanol, and 6.40 w/w % poloxamer 188 was prepared. The solution was administered subcutaneously to male beagle dogs at a dose level of about 12 mg/kg and male Wistar Han rats at a dose level of about 50 mg/kg. The pharmacokinetic profiles were determined, and the results for dogs are summarized in Table and Table, while the results for rats are summarized in Table and Table below.
A solution of about 500 mg/mL of the compound of Formula (Ia) having 14.06 w/w % water, 30.12 w/w % PEG 300, […] of a sodium salt of a compound of Formula (Ia), 5.00 w/w % ethanol, and 6.40 w/w % poloxamer 188 was prepared. The solution was administered subcutaneously to male beagle dogs at a dose level of about 12 mg/kg and male Wistar Han rats at a dose level of about 50 mg/kg. The pharmacokinetic profiles were determined, and the results for dogs are summarized in Table and Table, while the results for rats are summarized in Table and Table below.
A solution of about 300 mg/mL of the compound of Formula (Ia) having 23.33 w/w % water, 48.99 w/w % PEG 300, 26.47 w/w % of a sodium salt of a compound of Formula (Ia), and 1.21 w/w % poloxamer 188 was prepared. The solution was administered subcutaneously to male beagle dogs at a dose level of about 6 mg/kg and male Wistar Han rats at a dose level of about 50 mg/kg. The pharmacokinetic profiles were determined, and the results for dogs are summarized in Table and Table, while the results for rats are summarized in Table and Table below.
A solution of about 400 mg/mL of the compound of Formula (Ia) having 18.80 w/w % water, 40.25 w/w % PEG 300, 34.38 w/w % of a sodium salt of a compound of Formula (Ia), 5.00 w/w % ethanol, and 1.57 w/w % poloxamer 188 was prepared. The solution was administered subcutaneously to male beagle dogs at a dose level of about 12 mg/kg and male Wistar Han rats at a dose level of about 50 mg/kg. The pharmacokinetic profiles were determined, and the results for dogs are summarized in Table and Table, while the results for rats are summarized in Table and Table below.
A solution of about 500 mg/mL of the compound of Formula (Ia) having 16.29 w/w % water, 34.88 w/w % PEG 300, 41.92 w/w % of a sodium salt of a compound of Formula (Ia), 5.00 w/w % ethanol, and 1.91 w/w % poloxamer 188 was prepared. The solution was administered subcutaneously to male beagle dogs at a dose level of about 12 mg/kg and male Wistar Han rats at a dose level of about 50 mg/kg. The pharmacokinetic profiles were determined, and the results for dogs are summarized in Table and Table, while the results for rats are summarized in Table and Table below.
A solution of about 400 mg/mL of the compound of Formula (Ia) having 20.90 w/w % water, 44.72 w/w % PEG 300, and 34.38 w/w % of a sodium salt of a compound of Formula (Ia) was prepared. […]

CC(C)(C#Cc1ccc(-c2ccc(Cl)c3c(NS(C)(=O)=O)nn(CC(F)(F)F)c23)c([C@H](Cc2cc(F)cc(F)c2)NC(=O)Cn2nc(C(F)(F)F)c3c2C(F)(F)[C@@H]2C[C@H]32)n1)S(C)(=O)=O [compound of Formula (Ia)]
concentration at 2688 h (Mean n = 3): 168 nM
concentration at 2688 h (animals #1-#3): 141 nM
concentration at 3024 h (Mean n = 3): 161 nM
concentration at 3024 h (animals #1-#3): 127 nM
concentration at 3360 h (Mean n = 3): 157 nM
concentration at 3360 h (animals #1-#3): 122 nM
concentration at 3696 h (Mean n = 3): 134 nM
concentration at 3696 h (animals #1-#3): 121 nM
concentration at 4032 h (Mean n = 3): 135 nM
concentration at 4032 h (animals #1-#3): 97.5 nM
concentration at 4704 h (Mean n = 3): 88.8 nM
concentration at 4704 h (animals #1-#3): 79.4 nM
AUC(0-t) (400 mg/mL solution AA (6.25% poloxamer 188), n = 4, read-out: AUC0-24 h): 3.44 ± 0.69 µM·h
AUC(0-t) (400 mg/mL solution AA (6.25% poloxamer 188), n = 4, read-out: AUC0-168 h): 32.4 ± 7.6 µM·h
AUC(0-t) (400 mg/mL solution AA (6.25% poloxamer 188), n = 4, read-out: AUC0-336 h): 55.2 ± 16.3 µM·h
AUC(0-t) (400 mg/mL solution AA (6.25% poloxamer 188), n = 4, read-out: AUC0-672 h): 98 ± 30.4 µM·h
AUC(0-t) (400 mg/mL solution AA (6.25% poloxamer 188), n = 4, read-out: AUC0-1008 h): 136 ± 36 µM·h
AUC(0-t) (400 mg/mL solution AA (6.25% poloxamer 188), n = 4, read-out: AUC0-1344 h): 167 ± 41 µM·h
AUC(0-t) (400 mg/mL solution AA (6.25% poloxamer 188), n = 4, read-out: AUC0-2352 h): 190 ± 45 µM·h
AUC(0-t) (400 mg/mL solution AA (6.25% poloxamer 188), n = 4, read-out: AUC0-3024 h): 240 ± 59 µM·h
AUC(0-t) (400 mg/mL solution AA (6.25% poloxamer 188), n = 4, read-out: AUC0-3696 h): 289 ± 76 µM·h
AUC(0-t) (400 mg/mL solution W (5.00% ethanol, 1.57% poloxamer 188), n = 3, read-out: AUC0-24 h): 2 ± 0.58 µM·h
AUC(0-t) (400 mg/mL solution W (5.00% ethanol, 1.57% poloxamer 188), n = 3, read-out: AUC0-168 h): 21.6 ± 4.5 µM·h
AUC(0-t) (400 mg/mL solution W (5.00% ethanol, 1.57% poloxamer 188), n = 3, read-out: AUC0-336 h): 45.9 ± 11.9 µM·h
AUC(0-t) (400 mg/mL solution W (5.00% ethanol, 1.57% poloxamer 188), n = 3, read-out: AUC0-672 h): 124 ± 32 µM·h
AUC(0-t) (400 mg/mL solution W (5.00% ethanol, 1.57% poloxamer 188), n = 3, read-out: AUC0-1008 h): 215 ± 45 µM·h
AUC(0-t) (400 mg/mL solution W (5.00% ethanol, 1.57% poloxamer 188), n = 3, read-out: AUC0-1344 h): 306 ± 65 µM·h
AUC(0-t) (400 mg/mL solution W (5.00% ethanol, 1.57% poloxamer 188), n = 3, read-out: AUC0-1680 h): 401 ± 86 µM·h
AUC(0-t) (400 mg/mL solution W (5.00% ethanol, 1.57% poloxamer 188), n = 3, read-out: AUC0-2352 h): 540 ± 114 µM·h
AUC(0-t) (400 mg/mL solution W (5.00% ethanol, 1.57% poloxamer 188), n = 3, read-out: AUC0-3024 h): 647 ± 126 µM·h
AUC(0-t) (400 mg/mL solution W (5.00% ethanol, 1.57% poloxamer 188), n = 3, read-out: AUC0-3696 h): 730 ± 131 µM·h
AUC(0-t) (400 mg/mL solution W (5.00% ethanol, 1.57% poloxamer 188), n = 3, read-out: AUC0-4704 h): 765 ± 131 µM·h
AUC(0-t) (400 mg/mL solution Y (water, PEG 300), n = 4, read-out: AUC0-24 h): 1.66 ± 0.32 µM·h
AUC(0-t) (400 mg/mL solution Y (water, PEG 300), n = 4, read-out: AUC0-168 h): 15.7 ± 4.7 µM·h
